Values after ≈ are worked out from the molar mass of the structure shown. Active and inactive are the calls of the source. No cut-off for these calls is given here.
Key:
[1] = test system: Staphylococcus aureus; assay: Antibacterial activity against methicillin-resistant Staphylococcus aureus isolate 770 assessed as bacterial growth inhibition measured after 18 hrs by CLSI protocol based two-fold serial microdilution method; format: functional; conditions: isolate 770, 18 h
[2] = test system: Escherichia coli; assay: Antibacterial activity against Escherichia coli ATCC 25922 assessed as bacterial growth inhibition measured after 18 hrs by CLSI protocol based two-fold serial microdilution method; format: functional, organism-based
[3] = test system: Staphylococcus aureus; assay: Antibacterial activity against methicillin-resistant Staphylococcus aureus isolate 584 assessed as bacterial growth inhibition measured after 18 hrs by CLSI protocol based two-fold serial microdilution method; format: functional; conditions: isolate 584, 18 h
[4] = test system: Staphylococcus aureus; assay: Antibacterial activity against Staphylococcus aureus ATCC 25923 assessed as bacterial growth inhibition measured after 18 hrs by CLSI protocol based two-fold serial microdilution method; format: functional; conditions: for MIC: ATCC 25923, 18 h
[5] = test system: Micrococcus luteus; assay: Antibacterial activity against Micrococcus luteus ATCC 9341 assessed as bacterial growth inhibition measured after 18 hrs by CLSI protocol based two-fold serial microdilution method; format: functional; conditions: for MIC: ATCC 9341, 18 h
[6] = test system: Staphylococcus epidermidis; assay: Antibacterial activity against methicillin-resistant Staphylococcus epidermidis isolate 603 assessed as bacterial growth inhibition measured after 18 hrs by CLSI protocol based two-fold serial microdilution method; format: functional; conditions: isolate 603, 18 h
[7] = test system: Staphylococcus aureus; assay: Antibacterial activity against Staphylococcus aureus ATCC 6358 assessed as bacterial growth inhibition measured after 18 hrs by CLSI protocol based two-fold serial microdilution method; format: functional; conditions: for MIC: ATCC 6358, 18 h
[8] = test system: Staphylococcus epidermidis; assay: Antibacterial activity against methicillin-resistant Staphylococcus epidermidis isolate 609 assessed as bacterial growth inhibition measured after 18 hrs by CLSI protocol based two-fold serial microdilution method; format: functional; conditions: isolate 609, 18 h
[9] = test system: Staphylococcus epidermidis; assay: Inhibition of biofilm formation in Staphylococcus epidermidis ATCC 35984 at 1 to 8 ug/ml measured after 24 hrs by crystal violet staining based assay; format: functional, organism-based
[10] = test system: Staphylococcus aureus; assay: Antibacterial activity against methicillin-resistant Staphylococcus aureus isolate 621 assessed as bacterial growth inhibition measured after 18 hrs by CLSI protocol based two-fold serial microdilution method; format: functional; conditions: isolate 621, 18 h
[11] = test system: Staphylococcus aureus; assay: Antibacterial activity against methicillin-resistant Staphylococcus aureus isolate 583 assessed as bacterial growth inhibition measured after 18 hrs by CLSI protocol based two-fold serial microdilution method; format: functional; conditions: isolate 583, 18 h
[12] = test system: Staphylococcus aureus; assay: Antibacterial activity against methicillin-resistant Staphylococcus aureus isolate 750 assessed as bacterial growth inhibition measured after 18 hrs by CLSI protocol based two-fold serial microdilution method; format: functional; conditions: isolate 750, 18 h
[13] = test system: Enterococcus hirae; assay: Antibacterial activity against Enterococcus hirae ATCC 10541 assessed as bacterial growth inhibition measured after 18 hrs by CLSI protocol based two-fold serial microdilution method; format: functional; conditions: for MIC: ATCC 10541, 18 h
[14] = Genotoxicity in rec negative Bacillus subtilis M45 assessed as diameter of inhibition zone at 256 ug measured after 24 hrs by rec-assay; format: toxicity; conditions: in vivo
[15] = test system: Escherichia coli; assay: Antibacterial activity against Escherichia coli NCTC 8196 assessed as bacterial growth inhibition measured after 18 hrs by CLSI protocol based two-fold serial microdilution method; format: functional, organism-based
[16] = test system: Pseudomonas aeruginosa; assay: Antibacterial activity against Pseudomonas aeruginosa ATCC 27853 assessed as bacterial growth inhibition measured after 18 hrs by CLSI protocol based two-fold serial microdilution method; format: functional, organism-based
[17] = Genotoxicity in rec-positive Bacillus subtilis H17 assessed as diameter of inhibition zone at 256 ug measured after 24 hrs by rec-assay; format: toxicity; conditions: in vivo
[18] = test system: Staphylococcus aureus; assay: Antibacterial activity against Staphylococcus aureus ATCC 29213 assessed as bacterial growth inhibition measured after 18 hrs by CLSI protocol based two-fold serial microdilution method; format: functional; conditions: for MIC: ATCC 29213, 18 h
[19] = test system: Staphylococcus aureus; assay: Antibacterial activity against methicillin-resistant Staphylococcus aureus isolate 620 assessed as bacterial growth inhibition measured after 18 hrs by CLSI protocol based two-fold serial microdilution method; format: functional; conditions: isolate 620, 18 h
[20] = test system: Staphylococcus epidermidis; assay: Antibacterial activity against methicillin-resistant Staphylococcus epidermidis isolate 574 assessed as bacterial growth inhibition measured after 18 hrs by CLSI protocol based two-fold serial microdilution method; format: functional; conditions: isolate 574, 18 h
[21] = test system: Staphylococcus aureus; assay: Antibacterial activity against methicillin-resistant Staphylococcus aureus isolate 612 assessed as bacterial growth inhibition measured after 18 hrs by CLSI protocol based two-fold serial microdilution method; format: functional; conditions: isolate 612, 18 h
[22] = test system: Staphylococcus epidermidis; assay: Antibacterial activity against Staphylococcus epidermidis ATCC 35984 assessed as bacterial growth inhibition measured after 18 hrs by CLSI protocol based two-fold serial microdilution method; format: functional; conditions: for MIC: ATCC 35984, 18 h
[23] = test system: Staphylococcus epidermidis; assay: Antibacterial activity against Staphylococcus epidermidis ATCC 12228 assessed as bacterial growth inhibition measured after 18 hrs by CLSI protocol based two-fold serial microdilution method; format: functional; conditions: for MIC: ATCC 12228, 18 h
[24] = test system: Pseudomonas aeruginosa; assay: Antibacterial activity against Pseudomonas aeruginosa ATCC 15442 assessed as bacterial growth inhibition measured after 18 hrs by CLSI protocol based two-fold serial microdilution method; format: functional, organism-based
[25] = test system: Staphylococcus epidermidis; assay: Antibacterial activity against methicillin-resistant Staphylococcus epidermidis isolate 602 assessed as bacterial growth inhibition measured after 18 hrs by CLSI protocol based two-fold serial microdilution method; format: functional; conditions: isolate 602, 18 h
[26] = test system: Staphylococcus epidermidis; assay: Antibacterial activity against methicillin-resistant Staphylococcus epidermidis isolate 654 assessed as bacterial growth inhibition measured after 18 hrs by CLSI protocol based two-fold serial microdilution method; format: functional; conditions: isolate 654, 18 h
[27] = test system: Staphylococcus epidermidis; assay: Inhibition of biofilm formation in Staphylococcus epidermidis ATCC 12228 at 1 to 8 ug/ml measured after 24 hrs by crystal violet staining based assay; format: functional, organism-based
[28] = test system: Staphylococcus epidermidis; assay: Antibacterial activity against methicillin-resistant Staphylococcus epidermidis isolate 610 assessed as bacterial growth inhibition measured after 18 hrs by CLSI protocol based two-fold serial microdilution method; format: functional; conditions: isolate 610, 18 h
[29] = test system: Staphylococcus epidermidis; assay: Antibacterial activity against methicillin-resistant Staphylococcus epidermidis isolate 660 assessed as bacterial growth inhibition measured after 18 hrs by CLSI protocol based two-fold serial microdilution method; format: functional; conditions: isolate 660, 18 h
[30] = test system: Staphylococcus aureus; assay: Antibacterial activity against Staphylococcus aureus NCTC 4163 assessed as bacterial growth inhibition measured after 18 hrs by CLSI protocol based two-fold serial microdilution method; format: functional; conditions: for MIC: NCTC 4163, 18 h

SMILES | MIC [1] [µM] | Activity [2] | MIC [3] [µM] | MIC [6] [µM] | MIC [8] [µM] | inhibition [9] | MIC [10] [µM] | MIC [11] [µM] | MIC [12] [µM] | diameter of the inhibition zone (DIZ) [14] [mm] | Activity [15] | Activity [16] | diameter of the inhibition zone (DIZ) [17] [mm] | MIC [19] [µM] | MIC [20] [µM] | MIC [21] [µM] | Activity [24] | MIC [25] [µM] | MIC [26] [µM] | inhibition [27] | also measured
CC[C@@H](C(=O)[C@@H](C)[C@@H](O)[C@H](C)[C@@H]1O[C@@H]([C@@H](CC)C(=O)ONC(=O)c2ccccc2O)CC[C@@H]1C)[C@H]1O[C@]2(C=CC(=O)[C@]3(CC[C@@](C)([C@H]4CC[C@](O)(CC)[C@H](C)O4)O3)O2)[C@H](C)C[C@@H]1C | 72.4 (≈ 64 µg/mL) | inactive | 72.4 (≈ 64 µg/mL) | 2.26 (≈ 2 µg/mL) | 2.26 (≈ 2 µg/mL) | Active | 4.52 (≈ 4 µg/mL) | 36.2 (≈ 32 µg/mL) | 4.52 (≈ 4 µg/mL) | 19 | inactive | inactive | 17 | 4.52 (≈ 4 µg/mL) | 2.26 (≈ 2 µg/mL) | 4.52 (≈ 4 µg/mL) | inactive | 4.52 (≈ 4 µg/mL) | 72.4 (≈ 64 µg/mL) | Active | Activity [4]: Active; Activity [5]: Active; Activity [7]: Active; Activity [13]: Active; Activity [18]: Active; Activity [22]: Active; Activity [23]: Active; MIC [28]: 4.52 µM (≈ 4 µg/mL); MIC [29]: 72.4 µM (≈ 64 µg/mL); Activity [30]: Active
CC[C@@H](C(=O)[C@@H](C)[C@@H](O)[C@H](C)[C@@H]1O[C@@H]([C@@H](CC)C(=O)ONC(=O)c2ccccc2O)CC[C@@H]1C)[C@H]1O[C@]2(C=C[C@@H](O)[C@]3(CC[C@@](C)([C@H]4CC[C@](O)(CC)[C@H](C)O4)O3)O2)[C@H](C)C[C@@H]1C | 4.51 (≈ 4 µg/mL) | inactive | 4.51 (≈ 4 µg/mL) | 2.26 (≈ 2 µg/mL) | 2.26 (≈ 2 µg/mL) | Active | 2.26 (≈ 2 µg/mL) | 2.26 (≈ 2 µg/mL) | 2.26 (≈ 2 µg/mL) | 30 | inactive | inactive | 24 | 2.26 (≈ 2 µg/mL) | 1.13 (≈ 1 µg/mL) | 2.26 (≈ 2 µg/mL) | inactive | 2.26 (≈ 2 µg/mL) | 4.51 (≈ 4 µg/mL) | Active | MIC [4]: 1 to 16 µg/mL (≈ 1.13 to 18.1 µM); MIC [5]: 1 to 16 µg/mL (≈ 1.13 to 18.1 µM); MIC [7]: 1 to 16 µg/mL (≈ 1.13 to 18.1 µM); MIC [13]: 1 to 16 µg/mL (≈ 1.13 to 18.1 µM); MIC [18]: 1 to 16 µg/mL (≈ 1.13 to 18.1 µM); MIC [22]: 1 to 16 µg/mL (≈ 1.13 to 18.1 µM); MIC [23]: 1 to 16 µg/mL (≈ 1.13 to 18.1 µM); MIC [28]: 2.26 µM (≈ 2 µg/mL); MIC [29]: 4.51 µM (≈ 4 µg/mL); MIC [30]: 1 to 16 µg/mL (≈ 1.13 to 18.1 µM)
CC[C@@H](C(=O)[C@@H](C)[C@@H](O)[C@H](C)[C@@H]1O[C@@H]([C@@H](CC)C(=O)ONC(=O)c2ccccc2)CC[C@@H]1C)[C@H]1O[C@]2(C=CC(=O)[C@]3(CC[C@@](C)([C@H]4CC[C@](O)(CC)[C@H](C)O4)O3)O2)[C@H](C)C[C@@H]1C | 73.7 (≈ 64 µg/mL) | inactive | 36.9 (≈ 32 µg/mL) | 4.61 (≈ 4 µg/mL) | 9.22 (≈ 8 µg/mL) | Active | 4.61 (≈ 4 µg/mL) | 36.9 (≈ 32 µg/mL) | 18.4 (≈ 16 µg/mL) | 23 | inactive | inactive | 20 | 18.4 (≈ 16 µg/mL) | 2.3 (≈ 2 µg/mL) | 18.4 (≈ 16 µg/mL) | inactive | 4.61 (≈ 4 µg/mL) | 73.7 (≈ 64 µg/mL) | Active | Activity [4]: Active; Activity [5]: Active; Activity [7]: Active; Activity [13]: Active; Activity [18]: Active; Activity [22]: Active; Activity [23]: Active; MIC [28]: 18.4 µM (≈ 16 µg/mL); MIC [29]: 73.7 µM (≈ 64 µg/mL); Activity [30]: Active
CC[C@@H](C(=O)[C@@H](C)[C@@H](O)[C@H](C)[C@@H]1O[C@@H]([C@@H](CC)C(=O)ONC(=O)c2ccccc2)CC[C@@H]1C)[C@H]1O[C@]2(C=C[C@@H](O)[C@]3(CC[C@@](C)([C@H]4CC[C@](O)(CC)[C@H](C)O4)O3)O2)[C@H](C)C[C@@H]1C | 9.19 (≈ 8 µg/mL) | inactive | 18.4 (≈ 16 µg/mL) | 4.6 (≈ 4 µg/mL) | 4.6 (≈ 4 µg/mL) | Active | 2.3 (≈ 2 µg/mL) | 18.4 (≈ 16 µg/mL) | 4.6 (≈ 4 µg/mL) | 32 | inactive | inactive | 25 | 4.6 (≈ 4 µg/mL) | 2.3 (≈ 2 µg/mL) | 4.6 (≈ 4 µg/mL) | inactive | 4.6 (≈ 4 µg/mL) | 18.4 (≈ 16 µg/mL) | Active | MIC [4]: 1 to 16 µg/mL (≈ 1.15 to 18.4 µM); MIC [5]: 1 to 16 µg/mL (≈ 1.15 to 18.4 µM); MIC [7]: 1 to 16 µg/mL (≈ 1.15 to 18.4 µM); MIC [13]: 1 to 16 µg/mL (≈ 1.15 to 18.4 µM); MIC [18]: 1 to 16 µg/mL (≈ 1.15 to 18.4 µM); MIC [22]: 1 to 16 µg/mL (≈ 1.15 to 18.4 µM); MIC [23]: 1 to 16 µg/mL (≈ 1.15 to 18.4 µM); MIC [28]: 4.6 µM (≈ 4 µg/mL); MIC [29]: 18.4 µM (≈ 16 µg/mL); MIC [30]: 1 to 16 µg/mL (≈ 1.15 to 18.4 µM)
